Measured values: ChEMBL document CHEMBL2429761, “Discovery of ML314, a Brain Penetrant Non-Peptidic β-Arrestin Biased Agonist of the Neurotensin NTR1 Receptor” (ACS Med Chem Lett, 2013)
pEC50, pIC50: −log10 of the molar value.

Key:
[1] = target: G-protein coupled receptor 35 (Homo sapiens, UniProt Q9HC97); assay: Agonist activity at GPR35 (unknown origin) expressed in human U2OS cells coexpressing beta-arrestin by GFP reporter gene assay; format: cell-based
[2] = target: Neurotensin receptor type 2 (Homo sapiens, UniProt O95665); assay: Agonist activity at NTR2 (unknown origin) expressed in human U2OS cells coexpressing beta-arrestin by GFP reporter gene assay; format: cell-based
Sequence of Neurotensin receptor type 2 (O95665 whole entry): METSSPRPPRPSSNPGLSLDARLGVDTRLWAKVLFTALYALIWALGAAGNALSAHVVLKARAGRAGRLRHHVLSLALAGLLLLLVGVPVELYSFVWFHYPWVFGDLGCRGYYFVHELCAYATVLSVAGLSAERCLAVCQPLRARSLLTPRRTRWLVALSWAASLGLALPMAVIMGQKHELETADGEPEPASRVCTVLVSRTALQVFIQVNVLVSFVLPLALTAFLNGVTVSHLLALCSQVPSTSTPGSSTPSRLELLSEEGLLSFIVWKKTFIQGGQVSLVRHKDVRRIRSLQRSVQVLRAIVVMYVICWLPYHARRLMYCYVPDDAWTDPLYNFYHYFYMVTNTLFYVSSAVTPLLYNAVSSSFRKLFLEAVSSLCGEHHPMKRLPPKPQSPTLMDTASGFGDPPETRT

[3] = target: T1, Neurotensin receptor type 1 (Homo sapiens, UniProt P30989); assay: Agonist activity at NTR1 (unknown origin) expressed in human U2OS cells coexpressing beta-arrestin by GFP reporter gene assay; format: cell-based
T1 sequence (P30989 whole entry): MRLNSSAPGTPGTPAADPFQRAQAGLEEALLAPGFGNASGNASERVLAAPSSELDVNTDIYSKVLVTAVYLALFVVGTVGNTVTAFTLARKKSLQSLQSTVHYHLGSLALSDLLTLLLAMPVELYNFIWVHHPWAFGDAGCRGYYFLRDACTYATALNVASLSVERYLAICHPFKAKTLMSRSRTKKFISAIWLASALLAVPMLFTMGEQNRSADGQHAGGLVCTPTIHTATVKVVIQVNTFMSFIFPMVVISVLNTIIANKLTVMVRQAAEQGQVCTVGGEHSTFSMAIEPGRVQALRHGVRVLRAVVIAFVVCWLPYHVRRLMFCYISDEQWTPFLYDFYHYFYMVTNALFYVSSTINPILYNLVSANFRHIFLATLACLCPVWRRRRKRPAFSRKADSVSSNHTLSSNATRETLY

[4] = target: T1, Neurotensin receptor type 1; assay: Antagonist activity at NTR1 (unknown origin) expressed in human U2OS cells coexpressing beta-arrestin assessed as inhibition of ML314-induced effect by GFP reporter gene assay
[5] = target: T1, Neurotensin receptor type 1
Description: Displacement of [125I]-neurotensin from NTR1 in HUVEC after 1 hr by gamma counting analysis

[6] = target: T1, Neurotensin receptor type 1; assay: Agonist activity at NTR1 (unknown origin) expressed in CHO cells assessed as stimulation of calcium flux relative to neurotensin (8 to 13); format: functional, cell-based
[7] = target: T1, Neurotensin receptor type 1; assay: Agonist activity at NTR1 (unknown origin) expressed in CHOK1 cells by beta-arrestin assay; format: cell-based, CHO-K1

Sequence of G-protein coupled receptor 35 (Q9HC97 whole entry): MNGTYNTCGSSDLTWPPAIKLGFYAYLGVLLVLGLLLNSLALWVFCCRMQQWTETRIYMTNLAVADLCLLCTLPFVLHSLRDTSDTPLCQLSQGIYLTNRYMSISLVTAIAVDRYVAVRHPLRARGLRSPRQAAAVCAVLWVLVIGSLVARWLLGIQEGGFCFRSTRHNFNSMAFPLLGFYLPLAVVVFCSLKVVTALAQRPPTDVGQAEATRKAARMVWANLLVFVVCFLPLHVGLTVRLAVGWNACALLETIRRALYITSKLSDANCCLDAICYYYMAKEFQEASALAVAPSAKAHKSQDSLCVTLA

pEC50 [1] | pEC50 [2] | pEC50 [3] | pIC50 [4] | pIC50 [5] | SMILES | Emax [6] | pEC50 [7]
< 4.40 | < 4.10 |  |  |  | COc1cc2nc(C3CCCC3)nc(N3CCN(c4ccccc4OC)CC3)c2cc1OC |  | 
< 4.40 | < 4.10 | < 4.10 |  |  | COc1cc2nc(C3CC3)nc(N3CCNCC3)c2cc1OC |  | 
< 4.40 | < 4.10 |  |  |  | COc1cc2nc(-c3ccccc3)nc(N3CCN(c4ccc(F)cc4)CC3)c2cc1OC |  | 
< 4.40 | < 4.10 |  |  |  | COc1cc2nc(C3CC3)nc(N3CCN(Cc4ccc(C)cc4)CC3)c2cc1OC |  | 
< 4.40 | < 4.10 |  |  |  | COc1cc2nc(-c3ccccc3)nc(N3CCN(c4ccccc4OC)CC3)c2cc1OC |  | 
< 4.40 | < 4.10 | 4.77 |  |  | CCCc1nc(N2CCN(c3ccccc3OC)CC2)c2cc(OC)c(OC)cc2n1 |  | 
< 4.40 | < 4.10 | 4.92 |  |  | COc1cc2nc(C3CCC3)nc(N3CCN(c4ccccc4Cl)CC3)c2cc1OC |  | 
< 4.40 | < 4.10 |  |  |  | COc1ccccc1CN1CCN(c2nc(C3CC3)nc3cc(OC)c(OC)cc23)CC1 |  | 
< 4.40 | < 4.10 |  |  |  | C=Cc1nc(N2CCN(c3ccccc3OC)CC2)c2cc(OC)c(OC)cc2n1 |  | 
< 4.40 | < 4.10 | 4.85 |  |  | COc1cc2nc(Cc3ccccc3)nc(N3CCN(c4ccccc4OC)CC3)c2cc1OC |  | 
< 4.40 | < 4.10 | < 4.10 |  |  | COc1cc2nc(-c3ccccc3)nc(N3CCN(c4ccccc4)CC3)c2cc1OC |  | 
< 4.40 | < 4.10 | < 4.10 |  |  | CCOc1cc2c(N3CCN(c4ccccc4OC)CC3)nc(-c3ccccc3)nc2cc1OC |  | 
< 4.40 | < 4.10 |  |  |  | COc1ccccc1N1CCN(c2nc(C3CCC3)nc3cc4c(cc23)OCO4)CC1 |  | 
< 4.40 | < 4.10 | 5.10 |  |  | COc1cc2nc(C(C)C)nc(N3CCN(c4ccccc4OC)CC3)c2cc1OC |  | 
< 4.40 | < 4.10 |  |  |  | COc1cc2nc(C3CC3)nc(N3CCN(C(=O)c4ccccc4OC)CC3)c2cc1OC |  | 
< 4.40 | < 4.10 | < 4.10 |  |  | COc1cc2nc(-c3ccccc3)nc(N3CCN(c4ccccc4Cl)CC3)c2cc1OC |  | 
< 4.40 | < 4.10 | < 4.10 |  |  | COc1cc2nc(CCN(C)C)nc(N3CCN(c4ccccc4OC)CC3)c2cc1OC |  | 
< 4.40 | < 4.10 |  |  |  | COc1ccc2nc(C3CC3)nc(N3CCN(c4ccccc4OC)CC3)c2c1 |  | 

More lines, now with the values behind:

SMILES | pEC50 [1] | pEC50 [2] | pEC50 [3] | pIC50 [4] | pIC50 [5] | Emax [6] | pEC50 [7]
CCOc1cc2c(N3CCN(c4ccccc4[N+](=O)[O-])CC3)nc(-c3ccccc3)nc2cc1OC | < 4.40 | < 4.10 | 4.12 |  |  |  | 
COc1cc2nc(C)nc(N3CCN(c4ccccc4OC)CC3)c2cc1OC | < 4.40 | < 4.10 | < 4.10 |  |  |  | 
COc1ccc2c(N3CCN(c4ccccc4OC)CC3)nc(C3CCC3)nc2c1 | < 4.40 | < 4.10 |  |  |  |  | 
COc1cc2nc(CCN3CCN(c4ccccc4OC)CC3)nc(N3CCN(c4ccccc4OC)CC3)c2cc1OC | < 4.40 | < 4.10 |  |  |  |  | 
CCOc1cc2c(N3CCN(c4ccccc4F)CC3)nc(-c3ccccc3)nc2cc1OC | < 4.40 | < 4.10 | < 4.10 |  |  |  | 
COc1cccc(OC)c1-c1cc(C(=O)NC2(C(=O)O)C3CC4CC(C3)CC2C4)nn1-c1ccc(C(=O)N(C)CCCN(C)C)cc1C(C)C (stereo unspecified) |  |  |  | 7.30 | 9.62 |  | 
COc1cc2nc(CC(C)C)nc(N3CCN(c4ccccc4OC)CC3)c2cc1OC | < 4.40 | < 4.10 |  |  |  |  | 
COc1cc2nc(C3CC3)nc(N3CCN(S(=O)(=O)c4ccccc4)CC3)c2cc1OC | < 4.40 | < 4.10 | < 4.10 |  |  |  | 
COc1cccc(OC)c1-c1cc(C(=O)N[C@@H](CC(C)C)C(=O)O)nn1-c1ccnc2cc(Cl)ccc12 |  |  | 6.12 |  |  | 63% | < 4.48
COc1cc2nc(C3CCC3)nc(N3CCN(c4ccccc4OC)CC3)c2cc1OC | < 4.40 | < 4.10 |  |  |  |  | 
COc1ccc2nc(C3CCC3)nc(N3CCN(c4ccccc4OC)CC3)c2c1 | < 4.40 | < 4.10 |  |  |  |  | 
COc1cc2nc(C3CCC3)nc(N3CCN(c4ccccn4)CC3)c2cc1OC | < 4.40 | < 4.10 | 4.59 |  |  |  | 
COc1cc2nc(C3CCC3)nc(N3CCN(c4ccccc4)CC3)c2cc1OC | < 4.40 | < 4.10 | 4.92 |  |  |  | 
COc1cc2nc(-c3ccccc3)nc(N3CCN(c4ccccc4F)CC3)c2cc1OC | < 4.40 | < 4.10 | < 4.10 |  |  |  | 
COc1ccccc1N1CCN(c2nc(C3CCC3)nc3ccccc23)CC1 | < 4.40 | < 4.10 | 4.64 |  |  |  | 
COc1cc2nc(C3CCC3)nc(N3CCN(c4ccccc4F)CC3)c2cc1OC | < 4.40 | < 4.10 | 4.74 |  |  |  | 
COc1cc2nc(C3CC3)nc(N3CCN(C(=O)c4ccccc4)CC3)c2cc1OC | < 4.40 | < 4.10 |  |  |  |  | 
COc1cc2nc(C3CC3)nc(N3CCN(c4ccccc4Cl)CC3)c2cc1OC | < 4.40 | < 4.10 |  |  |  |  | 
CCOc1cc2c(N3CCN(c4ccccc4)CC3)nc(-c3ccccc3)nc2cc1OC | < 4.40 | < 4.10 | < 4.10 |  |  |  | 
COc1cc2ncnc(N3CCN(c4ccccc4OC)CC3)c2cc1OC | < 4.40 | < 4.10 | < 4.10 |  |  |  | 
CCc1nc(N2CCN(c3ccccc3OC)CC2)c2cc(OC)c(OC)cc2n1 | < 4.40 | < 4.10 |  |  |  |  | 
COc1cc2nc(CC3CC3)nc(N3CCN(c4ccccc4OC)CC3)c2cc1OC | < 4.40 | < 4.10 | 4.85 |  |  |  | 
CCOc1ccccc1N1CCN(c2nc(C3CC3)nc3cc(OC)c(OC)cc23)CC1 | < 4.40 | < 4.10 |  |  |  |  | 
COc1cc2nc(C3CCC3)nc(N3CCN(c4ccccc4C)CC3)c2cc1OC | < 4.40 | < 4.10 |  |  |  |  | 
